Laboratory results from patent US12661345B2, “Compositions for the treatment of hypertension” (The George Institute for Global Health, priority 2017, dated 2026).
Like-named read-outs stand apart in the source and are kept apart here.

How the values were obtained:
[1] = tested on: participants with migraine; assay: Subject status / participant withdrawals by visit in the 3×3 factorial trial
[2] = tested on: participants with migraine; conditions: human, in vivo

## CCC(C)(C)C(=O)O[C@H]1C[C@@H](C)C=C2C=C[C@H](C)[C@H](CC[C@@H]3C[C@@H](O)CC(=O)O3)[C@H]21 [Simvastatin, simvastatin]
[1]; Week 4
  Discontinuing the study (n/N): 0/9
  Discontinuing the study (percent): (0.0%)
  Discontinuing: Deceased (n/N): 0/0
  Discontinuing: Deceased (percent): (0.0%)
[1]; Week 8
  Discontinuing the study (n/N): 0/9
  Discontinuing the study (percent): (0.0%)
  Discontinuing: Deceased (n/N): 0/0
  Discontinuing: Deceased (percent): (0.0%)
[1]; Week 12
  Discontinuing the study (n/N): 0/9
  Discontinuing the study (percent): (0.0%)
  Discontinuing: Deceased (n/N): 0/0
  Discontinuing: Deceased (percent): (0.0%)
[1]; Week 16
  Deceased (n/N): 0/9
  Deceased (percent): (0.0%)

## CC(C)NCC(O)COc1cccc2ccccc12 (stereo not shown) [Propranolol, propranolol]
[2]; 4 week
  Discontinuing the study (n/N): 0/10
  Discontinuing the study (percent): (0.0%)
[2]; 8 week
  Discontinuing the study (n/N): 0/10
  Discontinuing the study (percent): (0.0%)
[2]; 12 week
  Discontinuing the study (n/N): 0/10
  Discontinuing the study (percent): (0.0%)
[2]; 16 week
  Deceased (n/N): 0/10
  Deceased (percent): (0.0%)
[1]; Week 4
  Discontinuing: Deceased (percent): (0.0%)
[1]; Week 8
  Discontinuing: Deceased (percent): (0.0%)
[1]; Week 12
  Discontinuing: Deceased (percent): (0.0%)
